We go through one compound from patent US12077495B2 (priority 2018, dated 2024).

Experiment [1] relates to wild-type and GABAB receptor knock-out mice. The experiment is described as follows: Temperature recording (hypothermia) in mice. The format is in vivo. To be noted: 500 mg/kg i.p.; wild-type or GABAB knock-out mice. As for the experimental part: Mice were pre-treated with saline injections (0.9% saline) i.p. for 4 days prior to the experiment to minimize stress on the day of the experiment. Experiments were conducted in a quiet room, in which mice were left undisturbed for at least two hrs prior to the experiment. After the i.p. injections, mice were left in their home cages for two hrs, had core body temperature recorded, and were then euthanized. The core body temperature was measured rectally by a thermometer (model DM 852; ELLAB Instruments; Copenhagen, Denmark) via a lubricated thermistor probe (model PRA-22002-A, 2.2 mm diameter; ELLAB Instruments). Mice were held at the base of the tail and measured until a stable temperature measurement was obtained.
By contrast, compound A had no effect on hypothermia in either wild-type or knock-out mice.

Experiment [2] deals with GFAP, CD14 and MMP9 mRNA. The experiment is described as follows: qPCR of molecular markers in peri-infarct tissue after photothrombotic focal ischemia. To be noted: 3 days post-stroke. Type of experiment: in vivo, mice. As for the experimental part: Tissue from the peri-infarct area was collected and snap-frozen 12-72 hrs post stroke and RNA was extracted using a RNA mini kit (Qiagen) following the instructions from the manufacturer. Extracted RNA was treated with DNAse using Turbo DNA-free kit (Ambion), all according to the manufacturer's protocol. The reverse transcription was performed using gScript™ cDNA SuperMix (Quanta Biosciences, Gaithersburg, MD, USA) on a standard PCR machine (25° C. for 5 min, 42° C. for 30 min, 85° C. for 5 min) and cDNA stored at −20° C. until further processing.
qPCR was performed in 96-well plates (Agilent Technologies, Santa Clara, CA, USA) mixing PerfeCTa SYBR Green FastMix (Quanta Biosciences), nuclease free water (Qiagen, West Sussex, UK), and primers (TAG Copenhagen A/S (Copenhagen, Denmark). The PCR was performed with an initial denaturation step of 95° C. for 30 s, followed by 40 cycles of 5 s at 95° C., 60° C. for 15 s and 72° C. for 10 s. To assure single-product amplification, a dissociation curve analysis was performed consisting of 60 s at 95° C., 30 s at 55° C. and 30 s at 95° C. The qPCR was performed using the Agilent Mx3005P qPCR system (Agilent Technologies), and the corresponding MxPro software was used to determine the Ct values. The ΔCt values were calculated using 2 (Reference Ct−Target Ct).
To investigate the protective mechanisms against brain damage following a focal ischemic insult, mRNA expression levels of the markers GFAP, CD14 and MMP9 were measured in the brain tissue surrounding the ischemic core 3 days post-stroke.

For experiment [3], the target named is T1, GABAB receptor (Rattus norvegicus, UniProt Q9Z0U4).
T1 construct: using crude synaptic membranes prepared from rat cortex; from tissue; host or cells: rat cortex, crude synaptic membranes
T1 sequence (Q9Z0U4 17-960 limits assumed): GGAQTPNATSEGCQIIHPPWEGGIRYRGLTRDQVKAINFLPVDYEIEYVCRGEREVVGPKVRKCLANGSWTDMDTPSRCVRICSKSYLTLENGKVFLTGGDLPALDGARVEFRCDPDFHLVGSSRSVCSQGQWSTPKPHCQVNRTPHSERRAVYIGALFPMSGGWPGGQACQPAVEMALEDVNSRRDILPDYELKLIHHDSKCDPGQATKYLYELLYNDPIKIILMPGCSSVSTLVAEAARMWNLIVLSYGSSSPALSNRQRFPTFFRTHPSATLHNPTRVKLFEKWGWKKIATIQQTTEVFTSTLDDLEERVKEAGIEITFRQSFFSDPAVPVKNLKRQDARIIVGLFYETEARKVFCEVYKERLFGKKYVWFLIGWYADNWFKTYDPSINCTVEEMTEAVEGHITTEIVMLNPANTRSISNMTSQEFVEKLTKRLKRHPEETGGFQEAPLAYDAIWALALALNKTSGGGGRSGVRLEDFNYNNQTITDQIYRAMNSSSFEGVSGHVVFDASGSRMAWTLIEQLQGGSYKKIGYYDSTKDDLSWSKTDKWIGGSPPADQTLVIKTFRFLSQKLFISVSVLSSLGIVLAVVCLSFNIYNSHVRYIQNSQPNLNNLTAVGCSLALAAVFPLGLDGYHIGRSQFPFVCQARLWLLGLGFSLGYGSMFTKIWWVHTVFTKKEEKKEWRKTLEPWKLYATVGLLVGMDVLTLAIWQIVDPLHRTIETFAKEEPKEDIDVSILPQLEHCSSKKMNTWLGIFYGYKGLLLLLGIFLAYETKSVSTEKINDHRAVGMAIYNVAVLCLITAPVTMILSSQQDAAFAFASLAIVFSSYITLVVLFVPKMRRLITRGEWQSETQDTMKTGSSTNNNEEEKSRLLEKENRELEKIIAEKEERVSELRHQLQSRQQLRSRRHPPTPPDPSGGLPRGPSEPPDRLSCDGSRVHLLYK
T1 sequence (O88871 41-940 partner): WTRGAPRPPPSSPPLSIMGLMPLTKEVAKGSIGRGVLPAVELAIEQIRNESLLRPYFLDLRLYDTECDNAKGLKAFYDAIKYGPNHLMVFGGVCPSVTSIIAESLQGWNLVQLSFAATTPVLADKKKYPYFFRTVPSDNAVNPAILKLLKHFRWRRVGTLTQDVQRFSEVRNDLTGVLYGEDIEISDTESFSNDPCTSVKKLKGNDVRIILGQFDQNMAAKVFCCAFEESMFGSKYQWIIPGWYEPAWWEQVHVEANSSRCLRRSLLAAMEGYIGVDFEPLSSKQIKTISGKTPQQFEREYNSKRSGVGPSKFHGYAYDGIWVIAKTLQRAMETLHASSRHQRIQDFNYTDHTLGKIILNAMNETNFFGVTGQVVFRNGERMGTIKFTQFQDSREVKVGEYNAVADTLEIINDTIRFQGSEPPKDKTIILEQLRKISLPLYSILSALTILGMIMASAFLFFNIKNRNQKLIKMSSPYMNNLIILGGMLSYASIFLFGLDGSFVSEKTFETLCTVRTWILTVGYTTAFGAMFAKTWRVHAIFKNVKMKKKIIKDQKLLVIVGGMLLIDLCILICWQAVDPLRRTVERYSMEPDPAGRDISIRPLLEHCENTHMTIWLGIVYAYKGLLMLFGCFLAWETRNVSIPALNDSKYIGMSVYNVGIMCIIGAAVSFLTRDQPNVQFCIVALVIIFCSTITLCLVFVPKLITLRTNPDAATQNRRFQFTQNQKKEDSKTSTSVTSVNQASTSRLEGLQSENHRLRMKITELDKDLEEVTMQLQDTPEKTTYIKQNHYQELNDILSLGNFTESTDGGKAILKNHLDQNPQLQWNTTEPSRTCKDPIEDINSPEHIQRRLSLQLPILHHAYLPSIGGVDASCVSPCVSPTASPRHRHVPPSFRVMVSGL
The note with it: cited from earlier work.

Experiment [4] deals with photothrombotic focal ischemia in C57BL/6J mice. As to the kind of experiment: Photothrombotic mouse model of focal ischemia, infarct volume. Type of experiment: in vivo. The note with it: for infarct volume: saline 9.38. Here is the method: All procedures were performed in accordance with the guidelines on the care and use of laboratory animals set out by the University of Otago, Animal Research Committee and the Guide for Care and Use of Laboratory Animals (NIH Publication No. 85-23, 1996). All in vivo studies were approved by the University of Otago Animal Ethics Committee and are reported according to the ARRIVE (Animal Research: Reporting In Vivo Experiments) guidelines. The photochemical cortical lesion model resembles situations of acute brain injury related clinically to stroke and traumatic brain injury (TBI). Focal ischemia was induced by photothrombosis in male C57BL/6J mice (8-10 weeks) weighing ˜23-30 g as previously described (Clarkson et al., 2010). Under anesthesia with isoflurane (2% to 2.5% in O2) mice were placed in a stereotactic apparatus, the skull exposed through a midline incision, cleared of connective tissue and dried. A cold light source (KL1500 LCD, Zeiss, Auckland, New Zealand) attached to a 40× objective providing a 2-mm diameter illumination was positioned 1.5 mm lateral from bregma. Then, 0.2 ml of Rose Bengal (Sigma-Aldrich, Auckland, New Zealand; 10 mg/ml in normal saline) was administered i.p. After 5 min, the brain was illuminated through the exposed intact skull for 15 min, while keeping body temperature at 37.0±0.3° C. degrees using a heating pad (Harvard apparatus, Holliston, MA, USA). The skin was glued and animals left in a cage placed on a heating pad during the wake-up phase. Mice were housed under a 12-hr light/dark cycle with ad libitum access to food and water. Further, the mice were monitored and weighed on a daily basis.
For in vivo studies, all compounds were dissolved in a mixture of sterile saline and H2O to obtain isotonicity (0.9%) and administered as 10 mg/ml and 10 μl of solution per gram mouse body weight. The injection of compound (i.p.) was performed 30 min, 3, 6 or 12 hrs after induction of the photothrombotic stroke. The vehicle groups received a corresponding volume of saline (0.9%) at the same time points (30 min, 3, 6 or 12 hrs).
For quantification of the infarcted area, animals were perfused with saline and then with 4% paraformaldehyde (PFA) and the brain dissected out and submerged in 4% PFA for post-fixing overnight. Then the brains were moved to 30% sucrose solution and kept at 4° C. until processing. Brains were cut in 30 μm sections, free-floating in anti-freeze media. Sections were mounted, stained for cresyl violet and the infarct volumes determined by measuring every 6th section through the entire infarct as described in Lie et al (2017). All analyses were performed by an observer blinded to the treatment groups. Brains from the pMCAO studies were flash-frozen in CO2 (gas) and processed into six parallel series of sections (30 μm). Separate series were collected on glass slides and used for infarct size analysis or in Eppendorf tubes and used for qPCR. The glass slides were stored at −80° C. until further processing, and then Cresyl-Violet stained and quantified as described for the photothrombotic photochemical method.

Setting [5] is: 175 mg/kg 30 min after ischemia.
Where [6] appears, read: 175 mg/kg i.p. 30 min after stroke, day 3.

Turning to `O=C(O)C1=CC(O)CC1` (stereo not drawn) [Compound A, 3-hydroxycyclopent-1-enecarboxylic acid], the “effect on body temperature (hypothermia)” value in experiment [1] was “no effect”. For the same compound, the “MMP9 mRNA levels” value in experiment [2] (17.5 mg/kg, vs saline) is reported as “significantly lower”; in experiment [2] (setting [5]), “markedly lowered”. Further, the “CD14 mRNA levels” value in experiment [2] (setting [5]) is listed as “markedly lowered”. The “GFAP mRNA levels” value in experiment [2] (peri-infarct tissue, vs saline) is “not different”. The “affinity for the GABAB binding site” value in experiment [3] is listed as “does not display any affinity”. Besides, the infarct volume amounted to 8.95 mm^3 in experiment [4] (17.5 mg/kg i.p. 30 min after stroke, day 3, not significant) and 6.56 mm^3 in experiment [4] (setting [6]). Further, the “decrease of infarct size vs saline” value is 51% in experiment [4] (90 mg/kg 3 hrs after stroke) and 33-43% in experiment [4] (175 mg/kg i.p. 3, 6 or 12 hrs after stroke). For the same compound, the infarct size in experiment [4] (90 mg/kg 3 hrs after stroke, saline 5.55) was found to be 2.68 mm^3; in experiment [4] (175 mg/kg i.p. 3 hrs after stroke, saline 5.51), 3.12 mm^3; in experiment [4] (175 mg/kg i.p. 6 hrs after stroke, saline 5.51) it was 3.68 mm^3; in experiment [4] (175 mg/kg i.p. 12 hrs after stroke, saline 5.51), 3.58 mm^3. The “reduction of infarct volume vs saline” value in experiment [4] (setting [6]) came out at 30%.
